The text below walks through data of EP0330353A1, “Tetrazole excitatory amino acid receptor antagonists” (ELI LILLY AND COMPANY, priority 1988, dated 1989).

Where two headings read alike, the source gives them in different places.

For one test, the system named is NMDA. The test can be described thus: In vivo NMDA-induced lethality in mice. Set-up: species or system Male Charles River CF1 mice. The note with it: for minimal effective dose: Mus musculus, 20 min, read-out: MED. How it is done: A typical receptor substance is characterized by N-methyl-D-aspartic acid (NMDA).
Male Charles River CF1 mice held in the laboratory for a minimum of three days were housed, 12 per cage, on sawdust bedding in clear plastic boxes with wire mesh lids. Animals were allowed full access to feed and water prior to testing.
Unless otherwise specified, all test compounds were formulated in dimethylsulfoxide (DMSO) and diluted to a 5% DMSO/sterile water solution by volume. Dosing began at 160 mg/kg. If any significant activity was detected, the test drug dose was divided in half until no more activity was detected. All test compounds were administered using the intraperitoneal injection (i.p.) route at a volume of 0.01 cc/gm.
Five mice were taken from the plastic cages, dosed with the test compound and placed individually in clear plastic observation cages. After a 30 minute drug absorption period, the mice were injected intra-peritoneally with 200 mg/kg of NMDA. This dose of NMDA produces death in more than 95% of control-treated animals. Twenty minutes after the NMDA injection the animals were scored as dead or alive. Data are reported as the minimum effective dose (MED) to block NMDA-induced lethality. Protection from lethality is met by the survival of at least three of the five animals. Data for AP5 and AP7, known excitatory amino acid antagonists, are provided for comparison.

The next test has as its system NMDA receptors. The test can be described thus: NMDA-induced seizures in neonatal rats. Format: in vivo, neonatal (7 to 8 days old) Sprague-Dawley rats. The note with it: lowest dose preventing NMDA-induced seizures in at least 3 of 5 neonatal rats; test drug i.p. in saline 30 min before NMDA 20 mg/kg i.p.; observed 30 min. On the procedure: In another experiment, male or female neonatal (7 to 8 days old) Sprague-Dawley rats were removed from the dam and placed in plastic observation chambers that were maintained at 30-32°C. All test drugs were dissolved in normal saline. Activation of NMDA receptors in these rats leads to a readily observable generalized motor seizure in over 95% of the animals.
Animals were injected by the intraperitoneal route with the test drug (1 ml/100 g of body weight) and observed for a 30 minute period for seizure (potential agonist) activity. They were then injected with NMDA at a dose of 20 mg/kg body weight i.p. to test for antagonist activity. […] Generally, five animals were used at each dose of compound. […] The minimum effective dose was the lowest test dose which prevented NMDA-induced seizures in at least three out of five animals.

The mark [1] stands for this setting: minimum effective dose to block NMDA-induced lethality (survival of at least 3 of 5 mice), test compound i.p. 30 min before 200 mg/kg NMDA i.p., scored 20 min after NMDA.

For `O=C(O)C1C/C(=C\c2nn[nH]n2)CCN1` (racemic) [Example 4, Z-(±)-4-[(1(2)H-Tetrazol-5-yl)methylidene]-2-piperidinecarboxylic acid], the minimal effective dose with NMDA (setting [1]) is 20 mg/kg.

Regarding “cis-(±)-4-[(1(2)-Methyl-1(2)H-tetrazol-5-yl)methyl]-2-piperidinecarboxylic acid [Example 7]”, the MED with NMDA (setting [1]) was determined as 160 mg/kg.

As to `O=C(O)[C@H]1C[C@@H](CCc2nn[nH]n2)CCN1` (racemic) [Example 1, cis-(±)-4-[2-(1(2)H-Tetrazol-5-yl)ethyl]-2-piperidinecarboxylic acid], in the test on NMDA (setting [1]), the minimal effective dose amounted to 20 mg/kg.

Turning to `O=C(O)[C@H]1C[C@@H](Cc2nn[nH]n2)CCN1` (racemic) [Example 3, cis-(±)-4-[(1(2)H-Tetrazol-5-yl)methyl]-2-piperidinecarboxylic acid], in the test on NMDA (setting [1]), the minimal effective dose came to 10 mg/kg.

With `CCCCOC(=O)[C@H]1C[C@@H](Cc2nn[nH]n2)CCN1` (racemic) [Example 5, Butyl cis-(±)-4-[(1(2)H-tetrazol-5-yl)methyl]-2-piperidinecarboxylate], in the test with NMDA (setting [1]), the minimal effective dose came to 160 mg/kg.

Turning to `CCOC(=O)C1CC(Cc2nn[nH]n2)CCN1` (racemic) [Example 6, Ethyl cis-(±)-4-[(1(2)H-tetrazol-5-yl)methyl]-2-piperidinecarboxylate], the MED in the test with NMDA receptors turned out to be 200 mg/kg.

As for `O=C(O)[C@H]1C[C@@H](CCCc2nn[nH]n2)CCN1` (racemic) [Example 2, cis-(±)-4-[3-(1(2)H-Tetrazol-5-yl)propyl]-2-piperidinecarboxylic acid], the minimal effective dose in the test on NMDA (setting [1]) amounted to 10 mg/kg.

Take `NC(CCCP(=O)(O)O)C(=O)O` (stereo not drawn) [AP5, reference compound]: in the test on NMDA (setting [1]), the minimal effective dose is 80 mg/kg.

As to `NC(CCCCCP(=O)(O)O)C(=O)O` (stereo not drawn) [AP7, reference compound], the minimal effective dose in the test with NMDA amounted to 160 mg/kg.
